pKd: −log10 of the molar value. Where two headings read alike, the source gives them in different places.
Legend:
NMDA receptor = test: Ca2+-dependent inactivation of the NMDA receptor, Ca2+ imaging of brain slices; assay type: cell-based, mouse; details: brain slices of mice fed HFD 2 weeks; 3 μM, 60 min; n=3
[1] = Ca2+ indicator; cited from earlier work
CP-AMPAR = test: Ca2+ imaging of hippocampal brain slices, AMPA+CTZ application, ob/ob mice; assay type: cell-based, mouse
AMPAR (CP-AMPAR) = test: Ca2+ imaging of hippocampal brain slices, AMPA+CTZ application (CP-AMPA reaction), HFD-fed mice; assay type: cell-based
Method: First, the intracellular calcium concentration ([Ca^2+]i) was directly measured in an acute brain slice of the hippocampus having a perihippocampal region using a mouse obesity model associated with HFD feeding (composition of diet (7) shown in Table 1) for 12 weeks after weaning to track calcium signaling (FIG. 1A: supplementary data moving image 1) in the hippocampus. HFD-fed mice received […] containing 100 μM CTZ (cyclothiazide; […]) applied to EC (entorhinal cortex), CA1 (cornu ammonis 1), CA2, CA3, and DG (dentate gyrus). The F525 normalized before and after application was compared.

NMDAR [2] = test: Ca2+ imaging of hippocampal brain slices, NMDA+glycine application, ob/ob mice; details: ob/ob mice orally administered PER; leptin 100 nM
NMDAR [3] = test: Ca2+ imaging of hippocampal brain slices, NMDA+glycine application (NMDA reaction), HFD-fed mice; assay type: cell-based, mouse; details: HFD mice orally administered PER; leptin 100 nM

CC(=O)OCOC(=O)CN(CC(=O)OCOC(C)=O)c1ccccc1OCCOc1ccccc1N(CC(=O)OCOC(C)=O)CC(=O)OCOC(C)=O [BAPTA-AM]
inactivation of the NMDA receptor (reactivity to NMDA 50 μM and glycine 10 μM) (NMDA receptor): released the inactivation of the NMDA receptor

CC(=O)OCOC(=O)CN(CC(=O)OCOC(C)=O)c1ccc(C)cc1OCCOc1cc(-c2c3cc(Cl)c(=O)cc-3oc3cc(OCOC(C)=O)c(Cl)cc23)ccc1N(CC(=O)OCOC(C)=O)CC(=O)OCOC(C)=O [Fluo-3 AM]
pKd [1]: 6.40

Cc1cn2c(n1)Cc1ccc(Cl)cc1C(c1ccc(N)cc1)=N2 [GYKI 47261]
inhibitory effect on CP-AMPAR in EC, CA1, CA2, CA3, DG (CP-AMPAR; ob/ob mice slices, 100 μM, p<0.05 (FIG. 10-1A)): significant inhibitory effect

NCCCNCCCCNCCCNC(=O)Cc1cccc2ccccc12 [NASPM, N-[3-[[4-[(3-aminopropyl)amino]butyl]amino]propyl]-1-naphthaleneacetamide]
inhibitory effect on CP-AMPAR in EC, CA1, CA2, CA3, DG (CP-AMPAR): significant inhibitory effect | increase in [Ca2+]i via pathological AMPAR (AMPAR (CP-AMPAR)): disappeared

leptin: hormone that regulates energy expenditure
function of NMDAR in EC, CA1, CA2, CA3, DG (NMDAR [2]): significantly enhanced | function of NMDAR in EC, CA1, CA2, CA3, DG (NMDAR [3]): significantly enhanced
